Measured values: patent US20100292295A1, “5-OXO-3-PYRROLIDINECARBOXAMIDE DERIVATIVES AS P2X7 MODULATORS” (GLAXO GROUP LIMITED, priority 2007, published 2010)
“And” between values parts separate entries of the source, which are not always exact repeats. Identical values can stand only once.

How the values were obtained:
[1] = target: T1, human recombinant P2X7 receptors (Homo sapiens, UniProt Q99572); experiment: Ethidium Accumulation Assay; type: cell-based; details: blocking ATP (1 mM) responses; HEK293 cells expressing human P2X7; read-out: pIC50 in the Ethidium Accumulation Assay (or a slightly modified version thereof), human P2X7 receptor antagonist activity (converted)
T1 construct: expressed in transfected cells
T1 sequence (Q99572 1-595): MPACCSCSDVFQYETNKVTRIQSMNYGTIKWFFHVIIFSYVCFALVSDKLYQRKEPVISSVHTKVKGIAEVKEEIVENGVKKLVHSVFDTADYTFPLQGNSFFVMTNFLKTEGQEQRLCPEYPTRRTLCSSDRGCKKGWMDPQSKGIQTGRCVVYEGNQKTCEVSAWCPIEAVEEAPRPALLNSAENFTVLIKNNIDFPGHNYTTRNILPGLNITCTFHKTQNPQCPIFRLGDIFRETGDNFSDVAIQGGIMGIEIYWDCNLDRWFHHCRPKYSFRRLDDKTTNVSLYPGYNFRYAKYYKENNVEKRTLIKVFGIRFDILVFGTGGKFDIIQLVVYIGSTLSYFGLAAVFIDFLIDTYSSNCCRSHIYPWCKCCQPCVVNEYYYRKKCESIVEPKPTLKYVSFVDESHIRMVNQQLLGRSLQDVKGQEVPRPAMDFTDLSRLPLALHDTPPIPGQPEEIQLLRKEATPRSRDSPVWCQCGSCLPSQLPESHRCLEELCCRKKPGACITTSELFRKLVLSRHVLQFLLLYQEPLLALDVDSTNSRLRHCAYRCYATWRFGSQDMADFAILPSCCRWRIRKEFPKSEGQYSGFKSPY
Procedure: Studies were performed using NaCl assay buffer of the following composition: 140 mM NaCl, 10 mM HEPES [4-(2-hydroxyethyl)-1-piperazine-1-ethanesulfonic acid], 5 mM N-methyl-D-glucamine, 5.6 mM KCl, 10 mM D-glucose, 0.5 mM CaCl2 (pH 7.4).
Human Embryonic Kidney (HEK) 293 cells, stably expressing human recombinant P2X7 receptors, were grown in poly-D-lysine pretreated 96 well plates for 18-24 hours. (The cloning of the human P2X7 receptor is described in U.S. Pat. No. 6,133,434, e.g. see Example 3 therein). The cells were washed twice with 350 μl of the assay buffer, before addition of 50 μl of the assay buffer containing the putative P2X7 receptor antagonist compound. (A small amount of dimethyl sulfoxide, for initially dissolving the compound, is optionally used and present in this 50 μl test compound sample.) The cells were then incubated at room temperature (19-21° C.) for 30 min before addition of ATP and ethidium (100 μM final assay concentration). The ATP concentration was chosen to be close to the EC80 for the receptor type and was 1 mM for studies on the human P2X7 receptor. Incubations were continued for 8 or 16 min and were terminated by addition of 25 μl of 1.3M sucrose containing 4 mM of the P2X7 receptor antagonist Reactive Black 5 (Aldrich). Cellular accumulation of ethidium was determined by measuring fluorescence (excitation wavelength of 530 nm and emission wavelength of 620 nm) from below the plate with a Canberra Packard Fluorocount (14 Station Road, Pangbourne, Reading, Berkshire RG8 7AN, United Kingdom) or a FlexStation II 384 from Molecular Molecular Devices (660-665 Eskdale Road, Wokingham, Berkshire RG41 5TS, United Kingdom). Antagonist pIC50 values for blocking ATP responses were determined using iterative curve fitting techniques.

[2] = target: T1, human recombinant P2X7 receptors; experiment: Fluorescent Imaging Plate Reader (FLIPR) Ca Assay; type: cell-based; details: blocking BzATP (60 μM) responses; HEK293 or U-2OS cells expressing human P2X7; read-out: pIC50 in the FLIPR Ca Assay (or a slightly modified version thereof), human P2X7 receptor antagonist activity (converted)
Procedure: Studies were performed using NaCl assay buffer of the following composition for human P2X7: 137 mM NaCl; 20 mM HEPES [4-(2-hydroxyethyl)-1-piperazine-1-ethanesulfonic acid]; 5.37 mM KCl; 4.17 mM NaHCO3; 1 mM CaCl2; 0.5 mM MgSO4; and 1 g/L of D-glucose (pH 7.4).
Human Embryonic Kidney (HEK) 293 cells, stably expressing human recombinant P2X7 receptors, were grown in poly-D-lysine pretreated 384 well plates for 24 hours at […] (for a time sufficient for growth of a homogeneous layer of cells at the bottom of the wells). Alternatively, human osteosarcoma (U-20S) cells (commercially available), transduced with modified Baculovirus (BacMam) vector to deliver the gene coding for human P2X7 receptor (i.e. transiently expressing human recombinant P2X7 receptors), were grown in substantially the same conditions as for the HEK293 cells except that the well plates were not pre-treated with poly-D-lysine. (The cloning of the human P2X7 receptor is described in U.S. Pat. No. 6,133,434, e.g. see Example 3 therein). The cells were washed three times with 80 μl of assay buffer, loaded for 1 h at 37° C. with 2 μM Fluo-4-AM [4-(6-acetoxymethoxy-2,7-difluoro-3-oxo-9-xanthenyl)-4′-methyl-2,2′-(ethylenedioxy)dianiline-N,N,N′,N′-tetraacetic acid tetrakis(acetoxymethyl) ester], a Ca^2+-sensitive, cell-permeable, fluorescent dye (Tef Labs. Inc., 9415 Capitol View Drive, Austin, Tex. 78747, USA), washed three times again (3×80 μl), and left with 30 μl buffer before the addition of 10 μl of the assay buffer containing the putative P2X7 receptor antagonist compound, the compound being added at 4× the final assay concentration chosen. The solution of the putative P2X7 receptor antagonist compound was created by (i) dissolving the compound in dimethyl sulfoxide (DMSO) to create a stock solution in DMSO at 200× the final assay concentration, and (ii) mixing 1 μl of the stock solution of the compound in DMSO with 50 μl of the assay buffer to create a solution at about 4× the final assay concentration. The cells were then incubated at room temperature for 30 mins before addition (online, by FLIPR384 or FLIPR3 instrument (Molecular Devices, 1311 Orleans Drive, Sunnyvale, Calif. 94089-1136, USA)) of benzoylbenzoyl-ATP (BzATP) such as to create a 60 μM final assay concentration of BzATP (BzATP was added at 5× this final concentration). The BzATP concentration was chosen to be close to the EC80 for the receptor type. Incubations and reading were continued for 90 sec, and intracellular calcium increase was determined by measuring fluorescence (excitation wavelength of 488 nm and emission wavelength of 516 nm) from below the plate, with FLIPR charged-coupled device (CCD) camera. Antagonist pIC50 values for blocking BzATP responses were determined using iterative curve fitting techniques.

| IC50 [1] | IC50 [2] | Compound |
| --- | --- | --- |
| < 3160 nM and 31.6 to 316 nM | ≤ 20000 nM | CCN1CC(C(=O)NCc2ccc(Cl)cc2Cl)CC1=O (centres unmarked) [Example 7, N-[(2,4-dichlorophenyl)methyl]-1-ethyl-5-oxo-3-pyrrolidinecarboxamide] |
| < 3160 nM | ≤ 20000 nM | C[C@H](c1ccccc1)N1CC(C(=O)NCc2ccc(F)cc2Cl)CC1=O (stereo partly drawn) [Example 1, N-[(2-chloro-4-fluorophenyl)methyl]-5-oxo-1-[(1R)-1-phenylethyl]-3-pyrrolidinecarboxamide] |
| < 3160 nM and 31.6 to 316 nM | ≤ 20000 nM | CN1CC(C(=O)NCc2ccc(Cl)cc2Cl)CC1=O (centres unmarked) [Example 6, N-[(2,4-dichlorophenyl)methyl]-1-methyl-5-oxo-3-pyrrolidinecarboxamide] |
| < 3160 nM and 31.6 to 316 nM | ≤ 20000 nM | O=C(NCc1ccc(Cl)cc1Cl)C1CC(=O)N(Cc2ccccc2)C1 (centres unmarked) [Example 12, N-[(2,4-dichlorophenyl)methyl]-5-oxo-1-(phenylmethyl)-3-pyrrolidinecarboxamide] |
| < 3160 nM and 31.6 to 316 nM | ≤ 20000 nM | CC(C)CN1CC(C(=O)NCc2ccc(Cl)cc2Cl)CC1=O (centres unmarked) [Example 10, N-[(2,4-dichlorophenyl)methyl]-1-(2-methylpropyl)-5-oxo-3-pyrrolidinecarboxamide] |
| < 3160 nM and 31.6 to 316 nM | ≤ 20000 nM | O=C(NCc1cccc(C(F)(F)F)c1Cl)C1CC(=O)N(Cc2ccccc2)C1 (centres unmarked) [Example 11, N-{[2-chloro-3-(trifluoromethyl)phenyl]methyl}-5-oxo-1-(phenylmethyl)-3-pyrrolidinecarboxamide] |

The remaining lines, values behind:

| Compound | IC50 [1] | IC50 [2] |
| --- | --- | --- |
| CN1CC(C(=O)NCc2cccc(C(F)(F)F)c2Cl)CC1=O (centres unmarked) [Example 5, N-{[2-chloro-3-(trifluoromethyl)phenyl]methyl}-1-methyl-5-oxo-3-pyrrolidinecarboxamide] | < 3160 nM and 31.6 to 316 nM and 50.1 to 63.1 nM | ≤ 20000 nM |
| O=C(NCc1ccc(F)cc1Cl)C1CC(=O)N(C2CC2)C1 (centres unmarked) [Example 2, N-[(2-Chloro-4-fluorophenyl)methyl]-1-cyclopropyl-5-oxo-3-pyrrolidinecarboxamide] | < 3160 nM | ≤ 20000 nM |
| CCN1CC(C(=O)NCc2cccc(C(F)(F)F)c2Cl)CC1=O (centres unmarked) [Example 8, N-{[2-chloro-3-(trifluoromethyl)phenyl]methyl}-1-ethyl-5-oxo-3-pyrrolidinecarboxamide] | < 3160 nM and 31.6 to 316 nM | ≤ 20000 nM |
| CN1CC(C(=O)NCc2cccc(C(F)(F)F)c2Cl)CC1=O (single isomer, unassigned) [5A stereoisomer 2] | 39.8 to 50.1 nM | – |
| CN1CC(C(=O)NCc2cccc(C(F)(F)F)c2Cl)CC1=O (single isomer, unassigned) [5A stereoisomer 1] | 158 to 200 nM | – |
| O=C(NCc1ccc(Cl)cc1Cl)C1CC(=O)N(C2CC2)C1 (centres unmarked) [Example 3, 1-Cyclopropyl-N-[(2,4-dichlorophenyl)methyl]-5-oxo-3-pyrrolidinecarboxamide] | < 3160 nM and 31.6 to 316 nM | ≤ 20000 nM |
| CC(C)CN1CC(C(=O)NCc2cccc(C(F)(F)F)c2Cl)CC1=O (centres unmarked) [Example 9, N-{[2-chloro-3-(trifluoromethyl)phenyl]methyl}-1-(2-methylpropyl)-5-oxo-3-pyrrolidinecarboxamide] | < 3160 nM and 31.6 to 316 nM | ≤ 20000 nM |
| O=C(NCc1cccc(C(F)(F)F)c1Cl)C1CC(=O)N(C2CC2)C1 (centres unmarked) [Example 4, N-{[2-chloro-3-(trifluoromethyl)phenyl]methyl}-1-cyclopropyl-5-oxo-3-pyrrolidinecarboxamide] | < 3160 nM and 31.6 to 316 nM | ≤ 20000 nM |
